In article PMC8494060 (Science translational medicine, 2020):

Molecular target: T1, OGA (Rattus norvegicus, UniProt Q8VIJ5)
T1 sequence (Q8VIJ5 1-916): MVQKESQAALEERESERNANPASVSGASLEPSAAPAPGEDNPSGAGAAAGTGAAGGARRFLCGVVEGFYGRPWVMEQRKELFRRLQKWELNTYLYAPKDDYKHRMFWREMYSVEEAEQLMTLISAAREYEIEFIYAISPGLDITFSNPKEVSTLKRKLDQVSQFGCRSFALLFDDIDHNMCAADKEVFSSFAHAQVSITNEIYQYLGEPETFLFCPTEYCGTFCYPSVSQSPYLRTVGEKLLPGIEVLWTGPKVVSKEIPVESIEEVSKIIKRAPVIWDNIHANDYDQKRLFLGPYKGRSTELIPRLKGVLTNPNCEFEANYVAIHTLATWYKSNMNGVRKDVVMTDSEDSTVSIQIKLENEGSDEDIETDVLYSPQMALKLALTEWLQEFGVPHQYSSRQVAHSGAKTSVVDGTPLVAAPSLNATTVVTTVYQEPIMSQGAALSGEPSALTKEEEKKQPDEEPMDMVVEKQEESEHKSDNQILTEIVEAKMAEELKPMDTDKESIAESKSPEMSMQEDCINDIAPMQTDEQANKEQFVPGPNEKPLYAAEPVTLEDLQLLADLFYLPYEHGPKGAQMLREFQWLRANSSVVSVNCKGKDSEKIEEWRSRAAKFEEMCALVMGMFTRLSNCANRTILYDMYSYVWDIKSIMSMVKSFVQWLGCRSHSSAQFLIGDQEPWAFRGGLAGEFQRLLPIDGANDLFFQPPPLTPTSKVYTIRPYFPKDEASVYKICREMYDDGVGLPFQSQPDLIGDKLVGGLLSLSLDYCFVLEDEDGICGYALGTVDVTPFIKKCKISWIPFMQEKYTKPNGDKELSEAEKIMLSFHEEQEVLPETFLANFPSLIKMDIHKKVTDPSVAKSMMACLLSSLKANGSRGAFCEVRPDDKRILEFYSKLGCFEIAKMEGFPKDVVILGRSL
Assay: Rat OGA occupancy of thiamet G
Format: in vivo
Conditions: 2 h before tracer

CCN=C1N[C@@H]2[C@@H](O)[C@H](O)[C@@H](CO)O[C@@H]2S1 [thiamet G]
LSN3316612 tracer uptake blocked (thiamet G 30 mg/kg p.o.): 80%
LSN3316612 tracer uptake blocked (thiamet G 100 mg/kg p.o.): 94%
